Measured values reported in US20110152093A1, “Herbicidal compositions comprising flufenacet” (Bayer CropScience AG, priority 2009, published 2011).

Columns and labels:
Assay type in all cases: in vivo
[1] = system: HORVS (Hordeum vulgare, summer barley); assay: PE crop selectivity at different sowing depths, test method 9; details: PE application, g of AS/ha: (A) 90, (B) 1200, (C) 140, (A)+(B)+(C) 90 + 1200 + 140
Experimental: (§1) In the standard design of the test, seeds of various broad-leaved weed and weed grass biotypes (origins) were sown in a 8-13 cm diameter pot filled with natural soil of a standard field soil (loamy silt; non-sterile) and covered with a covering soil layer of about 1 cm. The pots were then cultivated in a greenhouse (12-16 h of light, temperature day 20-22° C., night 15-18° C.) until the time of application. The pots were treated on a laboratory track sprayer with spray liquors comprising the compositions according to the invention, mixtures of the prior art or components used individually. Application of the active compounds or active compound combinations formulated as WG, WP, EC or otherwise was carried out at the appropriate growth stages of the plants. The application rate for the spray application was 100-600 l of water/ha. After the treatment, the plants were returned to the greenhouses.
(§2) About 3 weeks after the application, the soil action or/and foliar action was assessed visually according to a scale of 0-100% in comparison to an untreated comparative group: 0%=no noticeable effect compared to the untreated comparative group; 100%=full effect compared to the untreated comparative group. […]

VIOAR (Viola arvensis) = assay: Post-emergence (PO) action against weeds, greenhouse trial, test method 2; details: PO application; g of AS/ha: (A) 240, (B) 1200, (C) 140, (A)+(B)+(C) 240 + 1200 + 140
Experimental: as §1
(§3) About 3 weeks after the application, the soil action or/and foliar action was assessed visually according to a scale of 0-100% in comparison to an untreated comparative group: 0%=no noticeable effect compared to the untreated comparative group; 100%=full effect compared to the untreated comparative group.
(§4) (notes: the term “seeds” also includes vegetative propagation forms such as, for example, rhizome pieces; abbreviations used: h light=hours of illumination, g of AS/ha=gram of active substance per hectare, l/ha=liter per hectare, S=sensitive, R=resistant) • 1. Pre-emergence action against weeds: seeds of various broad-leaved weed and weed grass biotypes (origins) were sown in a 8-13 cm diameter pot filled with natural soil of a standard field soil (loamy silt; non-sterile) and covered with a covering soil layer of about 1 cm. The pots were then cultivated in a greenhouse (12-16 h of light, temperature day 20-22° C., night 15-18° C.) until the time of application. The pots were treated at the BBCH stage 00-10 of the seeds/plants on a laboratory track sprayer with spray liquors comprising the compositions according to the invention, mixtures or components used individually, as WG, WP, EC or other formulations. The application rate for the spray application was 100-600 l of water/ha. After the treatment, the plants were returned to the greenhouses and, when required, treated with fertilizer and watered. • 2. Post-emergence action against weeds: seeds of various broad-leaved weed and weed grass biotypes (origins) were sown in a 8-13 cm diameter pot filled with natural soil of a standard field soil (loamy silt; non-sterile) and covered with a covering soil layer of about 1 cm. The pots were then cultivated in a greenhouse (12-16 h of light, temperature day 20-22° C., night 15-18° C.) until the time of application. The pots were treated at various BBCH stages between 11-25 of the seeds/plants, i.e. generally between two to three weeks after the start of the cultivation, on a laboratory track sprayer with spray liquors comprising the compositions according to the invention, mixtures or components used individually, as WG, WP, EC or other formulations. The application rate for the spray application was 100-600 l of water/ha. After the treatment, the plants were returned to the greenhouses and, when required, treated with fertilizer and watered. • 3. […]

POAAN (Poa annua) = assay: as above; details: PO application; g of AS/ha: (A) 240, (B) 1200, (C) 140, (A)+(B)+(C) 240 + 1200 + 140
Experimental: as §1, §3, §4

[2] = system: LOLSS sensitive (Lolium species); assay: PE action on resistant weed biotypes, test method 8; details: PE application; g of AS/ha: (A) 90, (B) 1200, (C) 140, (A)+(B)+(C) 90 + 1200 + 140, iodosulfuron 10
Experimental: as §1, §3
(§5) (notes: the term “seeds” also includes vegetative propagation forms such as, for example, rhizome pieces; abbreviations used: h light=hours of illumination, g of AS/ha=gram of active substance per hectare, l/ha=liter per hectare, S=sensitive, R=resistant) • 1. Pre-emergence action against weeds: seeds of various broad-leaved weed and weed grass biotypes (origins) were sown in a 8-13 cm diameter pot filled with natural soil of a standard field soil (loamy silt; non-sterile) and covered with a covering soil layer of about 1 cm. The pots were then cultivated in a greenhouse (12-16 h of light, temperature day 20-22° C., night 15-18° C.) until the time of application. The pots were treated at the BBCH stage 00-10 of the seeds/plants on a laboratory track sprayer with spray liquors comprising the compositions according to the invention, mixtures or components used individually, as WG, WP, EC or other formulations. The application rate for the spray application was 100-600 l of water/ha. After the treatment, the plants were returned to the greenhouses and, when required, treated with fertilizer and watered. • 2. Post-emergence action against weeds: seeds of various broad-leaved weed and weed grass biotypes (origins) were sown in a 8-13 cm diameter pot filled with natural soil of a standard field soil (loamy silt; non-sterile) and covered with a covering soil layer of about 1 cm. The pots were then cultivated in a greenhouse (12-16 h of light, temperature day 20-22° C., night 15-18° C.) until the time of application. The pots were treated at various BBCH stages between 11-25 of the seeds/plants, i.e. generally between two to three weeks after the start of the cultivation, on a laboratory track sprayer with spray liquors comprising the compositions according to the invention, mixtures or components used individually, as WG, WP, EC or other formulations. The application rate for the spray application was 100-600 l of water/ha. After the treatment, the plants were returned to the greenhouses and, when required, treated with fertilizer and watered. • 3. Selective pre-emergence action: seeds of various crop species (origins) were sown in a 8-13 cm diameter pot filled with natural soil of a standard field soil (loamy silt; non-sterile) and covered with a covering soil layer of about 1 cm. The pots were then cultivated in a greenhouse (12-16 h of light, temperature day 20-22° C., night 15-18° C.) until the time of application. The pots were treated at the BBCH stage 00-10 of the seeds/plants on a laboratory track sprayer with spray liquors comprising the compositions according to the invention, mixtures or components used individually, as WG, WP, EC or other formulations. The application rate for the spray application was 100-600 l of water/ha. […]

[3] = system: LOLSS resistant (Lolium species); assay: as above; details: PE application; g of AS/ha: (A) 90, (B) 1200, (C) 140, (A)+(B)+(C) 90 + 1200 + 140, iodosulfuron 10
Experimental: as §1, §3, §5

[4] = system: ALOMY sensitive (Alopecurus myosuroides); assay: as above; details: PE application; g of AS/ha: (A) 90, (B) 1200, (C) 140, (A)+(B)+(C) 90 + 1200 + 140, iodosulfuron 10
Experimental: as §1, §3, §5

[5] = system: ALOMY resistant (Alopecurus myosuroides); assay: as above; details: PE application; g of AS/ha: (A) 90, (B) 1200, (C) 140, (A)+(B)+(C) 90 + 1200 + 140, iodosulfuron 10
Experimental: as §1, §3, §5

AVEFA (Avena fatua) = assay: Pre-emergence (PE) action against weeds, greenhouse trial, test method 1; details: PE application; g of AS/ha: (A) 90, (B) 1200, (C) 140, (A)+(B)+(C) 90 + 1200 + 140
Experimental: as §1, §2

[6] = system: MATCH (Matricaria chamomilla); assay: as above; details: PE application; g of AS/ha: (A) 90, (B) 1200, (C) 140, (A)+(B)+(C) 90 + 1200 + 140
Experimental: as §1, §2

LOLPE (Lolium perenne) = assay: PE action under various irrigation conditions, test method 6; details: PE application, g of AS/ha: (A) 90, (B) 1200, (C) 140, (A)+(B)+(C) 90 + 1200 + 140
Experimental: as §1, §3, §5

[7] = system: MATCH (Matricaria chamomilla); assay: as above; details: PE application
Experimental: as §1, §3, §5

[8] = system: HORVS (Hordeum vulgare, summer barley); assay: Pre-sowing application (7 days prior to sowing), crop compatibility; details: g of AS/ha: (A) 90, (B) 1200, (C) 140, (A)+(B)+(C) 90 + 1200 + 140
Experimental: as §1, §2

`CCC(CC)Nc1c([N+](=O)[O-])cc(C)c(C)c1[N+](=O)[O-]` [(B) pendimethalin, N-(1-ethylpropyl)-3,4-dimethyl-2,6-dinitrobenzenamine] was tested, and the “activity HORVS 5 mm (crop plant)” value ([1]; sowing depth 5 mm) was 30%, the “activity HORVS 20 mm (crop plant)” value ([1]; sowing depth 20 mm) was 20% and the “activity VIOAR (visual, scale 0-100%)” value (VIOAR (Viola arvensis)) was 30%. For the same molecule, the “activity POAAN (visual, scale 0-100%)” value (POAAN (Poa annua)) was 0%, the “activity LOLSS sensitive” value [2] was 78% and the “activity LOLSS resistant” value [3] was 0%. The “activity ALOMY sensitive” value [4] was 30%, the “activity ALOMY resistant” value [5] was 40% and the “activity AVEFA” value (AVEFA (Avena fatua)) was 40%. For the same molecule, the “activity MATCH” value [6] was 18%, the “activity LOLPE” value (LOLPE (Lolium perenne); irrigation from above) was 75% and the “activity LOLPE” value (LOLPE (Lolium perenne); irrigation from below) was 10%. For the same molecule, the “activity MATCH” value ([7]; irrigation from above, g of AS/ha: (A) 90, (B) 1200, (C) 140, (A)+(B)+(C) 90 + 1200 + 90) was 30%, the “activity MATCH” value ([7]; irrigation from below, g of AS/ha: (A) 90, (B) 1200, (C) 140, (A)+(B)+(C) 90 + 1200 + 140) was 18% and the “activity HORVS (crop plant)” value [8] was 30%.
